Measurements published in the supplement of paper PMC3068080.

Tests used:
[1] = tested on: TGFBR2 mRNA; assay: remaining TGFBR2 mRNA relative to control siRNA (off-target knock-down) (fraction of control); quantification method: branched DNA (R1), qPCR (R2); higher = less knock-down
Procedure: (§1)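 Screen-hit siRNA duplexes (19-mer plus 3' dTdT overhang) were transiently transfected into HaCaT cells in 12-well plates. After 48 h, TGFBR1 and TGFBR2 mRNA were quantified by branched DNA assay (QuantiGene, normalised to HPRT1) or by SYBR qPCR (normalised to HPRT1/SMAD4). Values are the remaining mRNA relative to control-siRNA-transfected cells; 1-2 biological replicates.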

[2] = tested on: TGFBR1 mRNA; assay: remaining TGFBR1 mRNA relative to control siRNA (off-target knock-down) (fraction of control); quantification method: branched DNA (R1), qPCR (R2); higher = less knock-down
Procedure: as §1

[3] = tested on: TGFBR2 mRNA; assay: remaining TGFBR2 mRNA relative to control siRNA (off-target knock-down) (fraction of control); quantification method: qPCR (R1), branched DNA (R2); higher = less knock-down
Procedure: as §1

[4] = tested on: TGFBR1 mRNA; assay: remaining TGFBR1 mRNA relative to control siRNA (off-target knock-down) (fraction of control); quantification method: qPCR (R1), branched DNA (R2); higher = less knock-down
Procedure: as §1

[5] = tested on: TGFBR1 mRNA; assay: remaining TGFBR1 mRNA relative to control siRNA (off-target knock-down) (fraction of control); quantification method: qPCR; higher = less knock-down
Procedure: as §1

[6] = tested on: TGFBR2 mRNA; assay: remaining TGFBR2 mRNA relative to control siRNA (off-target knock-down) (fraction of control); quantification method: qPCR; higher = less knock-down
Procedure: as §1

## AACACCAUCUACUUGAUGGTT
[1]
  remaining TGFBR2 mRNA: 0.78
[2]
  remaining TGFBR1 mRNA: 1.31

## AACUGGUUCAGGUACUUCCTT
[1]
  remaining TGFBR2 mRNA: 0.71
[2]
  remaining TGFBR1 mRNA: 0.95

## ACUACGACUCAGUGCCUGGTT
[1]
  remaining TGFBR2 mRNA: 0.7
[2]
  remaining TGFBR1 mRNA: 1

## AGACGGCAAACGACUGUCCTT
[1]
  remaining TGFBR2 mRNA: 0.75
[2]
  remaining TGFBR1 mRNA: 1.27

## AGCUCAAACAGUAUCUGGUTT
[1]
  remaining TGFBR2 mRNA: 0.7
[2]
  remaining TGFBR1 mRNA: 1.45

## AGGAUCAGCAGCCCGUAGCTT
[1]
  remaining TGFBR2 mRNA: 0.72
[2]
  remaining TGFBR1 mRNA: 1.52

## AUAGACCAUCCCCCUUCUUTT
[3]
  remaining TGFBR2 mRNA: 0.95
[4]
  remaining TGFBR1 mRNA: 0.46

## AUCCUGCAGAAUCACGUCCTT
[1]
  remaining TGFBR2 mRNA: 0.7
[2]
  remaining TGFBR1 mRNA: 0.93

## AUGAUGUCAUCGGCUGUGGTT
[5]
  remaining TGFBR1 mRNA: 0.68
[6]
  remaining TGFBR2 mRNA: 0.15

## AUGUGUACAGCCCUCUUCCTT
[1]
  remaining TGFBR2 mRNA: 0.65
[2]
  remaining TGFBR1 mRNA: 1.84

## CUCUGGGGAUUUGGAGGAUTT
[1]
  remaining TGFBR2 mRNA: 0.71
[2]
  remaining TGFBR1 mRNA: 1.07

## UCUCGCUGACGAAGCAGUATT
[1]
  remaining TGFBR2 mRNA: 0.75
[2]
  remaining TGFBR1 mRNA: 1.1

## UCUGUCAUAGGAUCCAAAATT
[5]
  remaining TGFBR1 mRNA: 0.74
[6]
  remaining TGFBR2 mRNA: 0.75

## UGCACCUGACUUUUCUCUGTT
[1]
  remaining TGFBR2 mRNA: 0.72
[2]
  remaining TGFBR1 mRNA: 1.37

## UGUCUCCUCUCUUGUCCGUTT
[1]
  remaining TGFBR2 mRNA: 0.7
[2]
  remaining TGFBR1 mRNA: 0.95

## UUAUUUGGGUGGGCUGGGGTT
[1]
  remaining TGFBR2 mRNA: 0.75
[2]
  remaining TGFBR1 mRNA: 0.98
